Five compounds from ChEMBL document CHEMBL1201862, “PubChem BioAssay data set” (2004) can be followed below.

Assay [1] concerns the target T1, Sentrin-specific protease 7 (Homo sapiens, UniProt Q9BQF6).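 Also: Luminescence-based dose-response confirmation of ultra-high-throughput screening hits, measuring inhibition of SENP7.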
T1 sequence (Q9BQF6 whole entry): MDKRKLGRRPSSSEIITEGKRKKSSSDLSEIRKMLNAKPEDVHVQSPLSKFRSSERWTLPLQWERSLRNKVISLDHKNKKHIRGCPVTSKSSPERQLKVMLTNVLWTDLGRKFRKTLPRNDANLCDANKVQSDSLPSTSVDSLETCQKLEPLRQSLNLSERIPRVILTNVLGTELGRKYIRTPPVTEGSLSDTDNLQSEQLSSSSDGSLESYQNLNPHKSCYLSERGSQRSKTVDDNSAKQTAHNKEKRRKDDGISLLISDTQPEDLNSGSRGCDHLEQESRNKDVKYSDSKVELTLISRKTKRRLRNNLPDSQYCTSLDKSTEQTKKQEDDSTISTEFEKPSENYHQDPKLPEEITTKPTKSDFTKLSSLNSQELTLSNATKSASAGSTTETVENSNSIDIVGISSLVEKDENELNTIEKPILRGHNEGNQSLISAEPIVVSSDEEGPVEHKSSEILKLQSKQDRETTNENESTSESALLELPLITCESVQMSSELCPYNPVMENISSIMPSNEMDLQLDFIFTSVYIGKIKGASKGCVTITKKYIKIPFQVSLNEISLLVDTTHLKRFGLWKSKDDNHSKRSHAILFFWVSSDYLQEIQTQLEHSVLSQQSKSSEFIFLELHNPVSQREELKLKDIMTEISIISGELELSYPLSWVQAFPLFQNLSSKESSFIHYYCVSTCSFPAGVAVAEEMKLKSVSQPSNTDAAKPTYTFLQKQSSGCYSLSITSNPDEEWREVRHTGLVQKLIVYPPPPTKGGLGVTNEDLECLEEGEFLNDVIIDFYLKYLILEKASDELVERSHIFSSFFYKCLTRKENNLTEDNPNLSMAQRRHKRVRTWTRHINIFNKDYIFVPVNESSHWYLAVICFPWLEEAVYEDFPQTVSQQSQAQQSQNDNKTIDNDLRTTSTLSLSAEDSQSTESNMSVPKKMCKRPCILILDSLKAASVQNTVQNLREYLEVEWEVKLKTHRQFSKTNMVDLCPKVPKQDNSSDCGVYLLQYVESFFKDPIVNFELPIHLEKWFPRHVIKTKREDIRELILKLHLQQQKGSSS
In kind it is functional.

Assay [2] addresses T2, Replicative DNA helicase DnaB (Mycobacterium tuberculosis, UniProt P9WMR3).
T2 sequence (P9WMR3 whole entry): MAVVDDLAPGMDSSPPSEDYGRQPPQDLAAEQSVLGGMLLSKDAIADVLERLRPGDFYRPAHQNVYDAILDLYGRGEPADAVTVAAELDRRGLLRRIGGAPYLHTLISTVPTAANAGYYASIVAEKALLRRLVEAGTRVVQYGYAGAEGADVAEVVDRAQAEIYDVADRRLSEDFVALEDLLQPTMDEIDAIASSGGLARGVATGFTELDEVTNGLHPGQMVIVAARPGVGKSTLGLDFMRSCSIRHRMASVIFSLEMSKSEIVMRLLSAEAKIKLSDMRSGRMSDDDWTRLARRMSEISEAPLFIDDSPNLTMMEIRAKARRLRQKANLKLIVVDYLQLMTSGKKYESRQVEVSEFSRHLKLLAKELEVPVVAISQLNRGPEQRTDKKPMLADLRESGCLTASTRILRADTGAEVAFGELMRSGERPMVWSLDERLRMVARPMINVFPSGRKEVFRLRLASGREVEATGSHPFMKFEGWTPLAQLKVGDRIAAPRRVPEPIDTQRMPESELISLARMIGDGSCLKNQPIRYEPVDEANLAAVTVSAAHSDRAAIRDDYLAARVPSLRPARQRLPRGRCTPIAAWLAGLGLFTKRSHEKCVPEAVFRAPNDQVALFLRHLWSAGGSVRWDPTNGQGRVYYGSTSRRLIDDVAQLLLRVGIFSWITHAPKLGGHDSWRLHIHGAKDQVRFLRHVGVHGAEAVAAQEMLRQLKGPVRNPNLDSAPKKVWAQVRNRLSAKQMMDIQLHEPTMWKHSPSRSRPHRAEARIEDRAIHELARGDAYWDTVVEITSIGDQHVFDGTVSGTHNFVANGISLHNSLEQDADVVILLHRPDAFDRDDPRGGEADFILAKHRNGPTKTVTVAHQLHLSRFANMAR
Briefly: DnaB intein splicing inhibitors, dose response, biochemical, cell-free fluorescence (AID 449749). In kind it is functional.

The structures appear in SMILES notation. The source made the active and inactive calls. Where only a bound is given, the exact number is not on record here.

Consider `CCN(c1ccccc1)c1cc2ccccc2c(=O)[nH]1`, for which the IC50 – broadly, the point on the concentration scale where inhibition reaches its midpoint – in assay [1] is 3.37 µM (active). In addition, the AC50 (in general, the concentration at which the activity in the assay is half-maximal) in assay [2] was > 380 µM (inactive).
Taken in the same sequence, the figures for `O=C(NC1(O)C(=O)c2ccccc2C1=O)c1c(Cl)cccc1Cl` were 3.76 µM (active) and 17.3 µM (active).
For `O=C(NC1(O)C(=O)c2ccccc2C1=O)c1ccc(C(F)(F)F)cc1`, the concentration for half-maximal inhibition (IC50) in assay [1] was 3.51 µM (active).
In the case of `O=C(COC(=O)c1ccc([N+](=O)[O-])s1)Nc1ncc(C(F)(F)F)cc1Cl`, the IC50 in assay [1] was 10.5 µM (active).
As for `Cn1c(=O)[nH]c(=O)c2c1nc([N+](=O)[O-])n2Cc1ccccc1`, the AC50 in assay [2] was 26.2 µM (active).
